# Where “and” joins values, the source holds several entries; their conditions need not be identical. Equal values may be shown once.
# Legend:
# [1] = target: T1, sAC-overexpressing rat 4-4 cells (Rattus norvegicus, UniProt Q9Z286); assay: Cellular cAMP accumulation in sAC-overexpressing 4-4 cells;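 on cAMP accumulated (%): percent of DMSO-treated control cAMP accumulation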; type: cell-based; design: cAMP accumulated: unit not given here; settings: for cAMP accumulated (%): Fig. 1d normalized replicates; for cAMP accumulated: Fig. 1d replicates
# T1 construct: expressed in transfected cells
# T1 sequence (Q9Z286 1-469 limits assumed): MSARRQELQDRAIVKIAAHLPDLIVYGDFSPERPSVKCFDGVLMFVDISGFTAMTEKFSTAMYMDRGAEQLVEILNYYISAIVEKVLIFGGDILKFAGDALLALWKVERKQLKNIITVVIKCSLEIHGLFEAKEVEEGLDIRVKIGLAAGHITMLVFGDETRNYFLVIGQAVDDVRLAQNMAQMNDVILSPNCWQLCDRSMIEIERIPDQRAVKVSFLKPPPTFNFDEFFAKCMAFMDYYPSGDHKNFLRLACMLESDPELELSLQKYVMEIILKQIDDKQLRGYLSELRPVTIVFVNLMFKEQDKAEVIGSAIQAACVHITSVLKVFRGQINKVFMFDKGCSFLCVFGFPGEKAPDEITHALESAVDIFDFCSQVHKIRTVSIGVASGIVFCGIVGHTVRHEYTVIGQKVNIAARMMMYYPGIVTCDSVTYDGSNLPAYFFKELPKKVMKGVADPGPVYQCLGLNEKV
# Protocol: sAC-overexpressing rat 4-4 cells were generated and functionally authenticated in our laboratory as previously described[33] and grown in DMEM + 10% FBS. Cells were maintained at 37 °C in 5% CO2 and were periodically checked for mycoplasma contamination.
# To assess potency in a cellular system, we utilized 4-4 cells, which stably overexpress sAC[20],[33],[56]. Cellular levels of cAMP reflect a balance between its synthesis by adenylyl cyclases and its degradation by phosphodiesterases (PDEs). […] On the day prior to the assay, 5 × 10^6 cells/ml were seeded in 24-well plates in DMEM with 10% FBS. To measure sAC-dependent cAMP accumulation, cells were pretreated for 10 min with the respective inhibitor at the indicated concentrations or DMSO as control in 300 µl fresh media. Cyclic AMP accumulation was initiated by the addition of 500 µM IBMX, and after 5 min, the media was removed, and the cells were lysed with 250 µl 0.1 M HCl by shaking at 700 rpm for 10 min.
# [2] = system: ejaculated uterine mouse sperm; assay: cAMP in ejaculated uterine mouse sperm from injected males; type: in vivo
# Protocol: (§1) For analysis of ejaculated uterine mouse sperm, the uteri of females with mating plugs were removed and placed into 1 ml TYH buffer.
# [3] = system: ejaculated uterine mouse sperm; assay: Motility (CASA) of ejaculated uterine mouse sperm from injected males; type: in vivo; design: hyperactivated motility (%): concentration or dose not given beside the values
# Protocol: as §1
# For ex vivo assessment of mouse sperm from inhibitor-treated mice, sperm (25 µl) isolated at the indicated time points (15 min to 24 hours post-injection) diluted 1:5 in non-capacitating TYH buffer were loaded on a […] Leja slide (Hamilton Thorne) and placed on a microscope stage at 37 °C. Sperm movements of 10 fields of at least 200 sperm were examined using computer-assisted sperm analysis (CASA) via Hamilton–Thorne digital image analyzer (IVOS II, Hamilton Thorne Research, Beverly, MA) with the following parameters: 30 frames, frame rate: 60 Hz, cell size: 30–170 μm^2. Ejaculated uterine mouse sperm were recorded without additional dilution. Sperm were considered motile when presenting STR ≥80% and VAP ≥50 μm/s and hyperactivated when presenting VCL ≥270 μm/s, LIN < 50%, and ALH ≥7 μm. Track´s color code: motile (green), progressive (turquoise), hyperactivated (purple), slow (pink), static (red), not counted due to late entry (yellow).
# [4] = Pharmacokinetic analysis of TDI-11861 in blood and tissues (LC-MS); type: in vivo, mouse; settings: i.p.; including cauda epididymis, excluding testis
# Protocol: At defined time points (15 min to 24 hours post-injection), 10 μl tail blood was progressively collected from the same males, mixed with 20 μl 15 mM EDTA, frozen in liquid nitrogen, and stored at −80 °C until analysis. Liver, kidney, eye, testis, caput and cauda epididymis, and seminal vesicle were collected, weighed, and homogenized in a threefold volume of 1:1 EtOH/H2O (v/v). […] Mice anesthetized with ketamine/xylazine were shaved and residual hair was removed with hair removal cream. A small incision was made with a scalpel, a hemostat was used to create a pump-size pocket under the skin, and the pump was inserted with the pump opening facing away from the incision. After the wound was closed, mice were treated with meloxicam for pain relief. For 7 or 42 days post-surgery, tail blood was collected at regular intervals.
# [5] = system: mice; type: in vivo; settings: for at least 24 hours
# [6] = Solubility; type: physicochemical; settings: unsuitable for chronic delivery to mice
# [7] = Pharmacokinetic analysis of TDI-11861 in blood and tissues (LC-MS); type: in vivo, mouse; settings: oral, 1 and 3 hours; caput and cauda epididymis, seminal vesicles, not testis
# [8] = system: tmACs from each subfamily; settings: cited from earlier work
# [9] = system: ion channels, GPCRs, kinases, and nuclear receptors; settings: cited from earlier work
# [10] = system: over 310 kinases; settings: cited from earlier work
# [11] = system: hERG; settings: cited from earlier work
# [12] = cited from earlier work
# [13] = cited from earlier work; remark: listed apart in the source
# [14] = cited from earlier work; remark: listed apart in the source
# [15] = at 20 µM; cited from earlier work
# [16] = Fig. 4a replicates, ejaculated uterine sperm, 2 hours after 50 mg/kg i.p.
smiles,measurement,setting,value
"Cc1c(Cc2ccccc2)c(-c2cc(Cl)nc(N)n2)nn1C [TDI-10229, reference compound]",cAMP accumulated (%),[1]; printed 0,3.303% and 10.629% and 8.51% and 2.193% and 5.92% and 3.107% and 22.11% and 16.4972% and 11.8328% and 5.524% and 4.206% and 1.889% and 2.077%
same,cAMP accumulated (%),[1]; printed 0.477121,0%
same,cAMP accumulated (%),[1]; printed -0.52288,40.0361% and 25.5301% and 16.8792% and 12.1343% and 19.6251% and 46.0455% and 19.6826% and 32.1271% and 49.6122% and 23.5829% and 24.3244% and 21.4812% and 12.9118%
same,cAMP accumulated (%),[1]; printed -1,53.928% and 46.3142% and 43.7516% and 31.429% and 23.6328% and 79.7321% and 41.9299% and 71.9606% and 102.407% and 49.6166% and 29.8946% and 34.6849% and 30.4462%
same,cAMP accumulated (%),[1]; printed -1.47712,63.9701% and 48.7859% and 51.356% and 54.7326% and 51.5128% and 120.896% and 78.187% and 107.566% and 161.903% and 63.1342%
same,cAMP accumulated,[1]; concentration (uM) -1.95424 [sic],47.248 and 20.896 and 22.932 and 53.28 and 23.028 and 39.526 and 63.525 and 88.135 and 120.985 and 194.007 and 68.902 and 22.685
same,cAMP accumulated,[1]; concentration (uM) -2.43136 [sic],48.561 and 22.294 and 31.915 and 66.057 and 37.215 and 54.337 and 58.571 and 46.103 and 61.044 and 66.819 and 131.064 and 78.712 and 23.002
same,cAMP accumulated,[1]; concentration (uM) -2.90848 [sic],49.13 and 27.611 and 32.179 and 77.343 and 38.522 and 35.67 and 62.766 and 41.76 and 54.941 and 113.858 and 170.305 and 78.712 and 23.104
Nc1nc(Cl)cc(-c2nn(C(F)F)cc2Cc2ccccc2OCCN2CCOC[C@@H]2CO)n1 [TDI-11861],bicarbonate-induced cAMP in ejaculated sperm,"[2]; 50 mg/kg i.p., retrieved from uterus",no bicarbonate-induced increase in cAMP
same,"cAMP, capacitating media",[2]; [16],0.692 pmol/10^6 sperm and 0.283 pmol/10^6 sperm and 0.5995 pmol/10^6 sperm and 0.72 pmol/10^6 sperm and 1.204 pmol/10^6 sperm and 0.492 pmol/10^6 sperm and 0.468 pmol/10^6 sperm and 0.24 pmol/10^6 sperm
same,"cAMP, non-capacitating media",[2]; [16],0.738 pmol/10^6 sperm and 1.2045 pmol/10^6 sperm and 0.9637 pmol/10^6 sperm and 0.847 pmol/10^6 sperm and 1.232 pmol/10^6 sperm and 0.679 pmol/10^6 sperm and 0.436 pmol/10^6 sperm and 0.514 pmol/10^6 sperm
same,motility of ejaculated sperm,"[3]; 50 mg/kg i.p., retrieved from uterus post-coitus",immotile
same,progressive motility (%),"[3]; Fig. 4b, ejaculated sperm",4.7% and 5.3% and 8.9% and 7% and 4% and 4.75% and 3.2%
same,hyperactivated motility (%),"[3]; Fig. 4c, ejaculated sperm",1.4% and 0.8% and 0.5% and 0.9% and 1.1%
same,levels in tissues versus blood,[4],correlated well with levels in blood
same,abnormal mouse behavior after single oral dose,[5],did not cause any abnormal mouse behavior
same,solubility,[6],limited solubility
same,levels in tissues versus blood,[7],correlated well with its concentration in blood
same,activity against tmACs,[8],no activity
same,activity versus 46-member safety panel,[9],no significant activity
same,activity against over 310 kinases,[10],no significant activity
same,activity in hERG electrophysiology studies,[11],no significant activity
same,activity in glutathione trapping assays,[12],no significant activity
same,activity in AMES assays,[13],no significant activity
same,DEREK analysis for mutagenicity risks,[14],no significant activity
same,cytotoxicity in cell viability assays,[15],no significant activity

# — publication PMC9929232, “On-demand male contraception via acute inhibition of soluble adenylyl cyclase” (Nature Communications, 2023)
